Test results taken from patent US20060276412A1, “METHODS AND COMPOSITIONS FOR MANAGING PSYCHOTIC DISORDERS” (priority 2005, published 2006).

What was measured:
[1] = tested on: serotonin (5HT) in hypothalamus; experiment: Brain microdialysis: serotonin in hypothalamus; format: in vivo, rats; conditions: 3 mg/kg olanzapine
Description: (§1) 62 adult Sprague-Dawley male rats (Harland, Indianapolis) weighing 300-350 g were used in the following studies. The rats were quarantined for at least five days in group housing. Following the quarantine procedure, rats were maintained in individual cages. For surgical implantation with intracerebral guides, guides were inserted directly above either the hypothalamus (HT) (31 rats), or the medial prefrontal cortex (mPFC) (31 rats). Stereotaxic coordinates (Paxinos and Watson, 1986) provided below were used to position the guide cannulae and/or probes: Animals were anesthetiszed according using standard procedures. The head of each animal was shaved from the front of the eyes to the back of the skull. Shaved areas were disinfected, and the animals were placed in stereotaxic frame ear bars. The animal was aligned with the incisor bar. The animal's scalp was cut with a sharp #15 scalpel blade. If the bone began to bleed, bone wax was applied to the incision. Periosteal tissue was cleaned from the skull to the lateral ridges with a cotton swab, and clamps were used to pull the skin out of the way. The probe or guide was placed in the clamp, such that the angled outlet cannula of the microdialysis probe was angled towards the animal's tail. The target coordinates were calculated, and this point was marked on the skull. Two holes in opposing skull bones were drilled for bone anchor screws and thread screws. The dura was torn away with a sharp, pointed object. The guide cannulae were placed at the dorsal/ventral zero point. […] Using dental acrylic, the cannulae were cemented to the bone anchor screws. The cement was allowed to harden and the rodent was removed from the stereotaxic frame. The cranial and caudal aspects of the incision were sutured. The animals were allowed to recover for three to five days. Stylets in the guides were replaced with dialysis probes on the evening prior to study to allow for animal acclimation and to reestablish the integrity of the blood brain barrier. […] Rats were weighed pre-surgery, every 1-2 days post-surgery until time of microdialysis, and postmortem. Microdialysis probes used in the experiments described below were first soaked in standard Ringer's perfusion medium for 30 minutes. Inlet and outlet tubing was connected to each probe using flanged connectors. The outlet tubing was connected to a fraction collector, and the inlet was connected to and […] syringe drive. The probes were immersed in fresh Ringer's solution and flushed with Ringer's perfusion medium at a rate of 2 μl/min for 1 hour. The probe was then transferred to the intracerebral guide on the rat's skull. […] Water was added to obtain a final concentration of 0.3 mg/ml. […] Zonisamide was dissolved in DMSO. […] The final concentration of zonisamide was 7.5 mg/ml. The drug solution was maintained at 37° C. prior to injection. The rats were divided into ten test groups. Five animals were analyzed for each test group. The test groups were as follows: For the microdialysis experiments, perfusion consisted of 2 μl/min delivery of sterile standard Ringer's solution for intervals of 20 minutes. Final collection volumes were 40 μl. 30 μl samples were analyzed for each analyte: DA, NE, 5HT. 12 pre-dose samples and 12 post dose samples were collected every 20 minutes for a duration of 4 hours, both pre-dose and post-dose. Six samples from the pre-dose and post-dose collections were analyzed for norepinephrine. The remaining six samples from the pre-dose and post-dose collections were analyzed for both dopamine and serotonin. Samples were chilled to -80° C. immediately following collection. The samples were analyzed using liquid chromatography with electrochemical detection using conventional techniques. See, e.g., Huang, T., R. et al. (1994) New […] Microbore Columns for Liquid Chromatography. Current Separations 12(4): 191-195. […] Concentrations of each compound are expressed as % baseline.

[2] = cited from earlier work
[3] = tested on: dopamine (DA) in medial prefrontal cortex; experiment: Brain microdialysis: dopamine in mPFC; format: in vivo, rats; conditions: 3 mg/kg olanzapine
Description: as §1

serotonin receptors = conditions: cited from earlier work
histaminic receptors = conditions: cited from earlier work
[4] = tested on: norepinephrine (NE) in hypothalamus; experiment: Brain microdialysis: norepinephrine in hypothalamus; format: in vivo, rats; conditions: 3 mg/kg olanzapine
Description: as §1

[5] = tested on: norepinephrine (NE) in medial prefrontal cortex; experiment: Brain microdialysis: norepinephrine in mPFC; format: in vivo, rats; conditions: 3 mg/kg olanzapine
Description: as §1

dopamine receptors = conditions: cited from earlier work
[6] = tested on: alpha-adrenergic receptors; conditions: cited from earlier work
[7] = tested on: dopamine (DA) in hypothalamus; experiment: Brain microdialysis: dopamine in hypothalamus; format: in vivo, rats; conditions: 3 mg/kg olanzapine
Description: as §1

[8] = tested on: serotonin (5HT) in medial prefrontal cortex; experiment: Brain microdialysis: serotonin in mPFC; format: in vivo, rats; conditions: 3 mg/kg olanzapine
Description: as §1

## Cc1cc2c(s1)Nc1ccccc1N=C2N1CCN(C)CC1 [olanzapine]
[1]; 3 HOUR AVE
  Serotonin concentrations in hypothalamus: 89.0647 % baseline
[1]; 40 min post dose
  Serotonin concentrations in hypothalamus: 89.816 % baseline
[1]; 80 min post dose
  Serotonin concentrations in hypothalamus: 86.183 % baseline
[1]; 120 min post dose
  Serotonin concentrations in hypothalamus: 92.131 % baseline
[1]; 160 min post dose
  Serotonin concentrations in hypothalamus: 80.560 % baseline
[1]; 200 min post dose
  Serotonin concentrations in hypothalamus: 98.707 % baseline
[1]; 240 min post dose
  Serotonin concentrations in hypothalamus: 88.921 % baseline
[1]; -20 min pre dose
  Serotonin concentrations in hypothalamus: 107.440 % baseline
[1]; -60 min pre dose
  Serotonin concentrations in hypothalamus: 98.601 % baseline
[1]; -100 min pre dose
  Serotonin concentrations in hypothalamus: 93.959 % baseline
[2]; analysis of four studies of various durations
  patients with a weight gain of ≧7%: 40%
[2]; noticeable in the first month of treatment
  time at which induced weight gain peaks: about 9 months
[3]; 3 HOUR AVE
  Dopamine concentrations in mPFC: 209.94 % baseline
[3]; 40 min post dose
  Dopamine concentrations in mPFC: 227.023 % baseline
[3]; 80 min post dose
  Dopamine concentrations in mPFC: 266.655 % baseline
[3]; 120 min post dose
  Dopamine concentrations in mPFC: 219.135 % baseline
[3]; 160 min post dose
  Dopamine concentrations in mPFC: 186.256 % baseline
[3]; 200 min post dose
  Dopamine concentrations in mPFC: 202.788 % baseline
[3]; 240 min post dose
  Dopamine concentrations in mPFC: 153.048 % baseline
[3]; -20 min pre dose
  Dopamine concentrations in mPFC: 105.509 % baseline
[3]; -60 min pre dose
  Dopamine concentrations in mPFC: 119.009 % baseline
[3]; -100 min pre dose
  Dopamine concentrations in mPFC: 75.482 % baseline
Serotonin receptors
  affinity for serotonin receptors: high affinity
Histaminic receptors
  affinity for histaminic receptors: lower affinity
[4]; 3 HOUR AVE
  Norepinephrine concentrations in hypothalamus: 129.18 % baseline
[4]; 20 min post dose
  Norepinephrine concentrations in hypothalamus: 161.934 % baseline
[4]; 60 min post dose
  Norepinephrine concentrations in hypothalamus: 148.422 % baseline
[4]; 100 min post dose
  Norepinephrine concentrations in hypothalamus: 115.418 % baseline
[4]; 140 min post dose
  Norepinephrine concentrations in hypothalamus: 118.651 % baseline
[4]; 180 min post dose
  Norepinephrine concentrations in hypothalamus: 113.533 % baseline
[4]; 220 min post dose
  Norepinephrine concentrations in hypothalamus: 115.014 % baseline
[4]; -40 min pre dose
  Norepinephrine concentrations in hypothalamus: 105.631 % baseline
[4]; -80 min pre dose
  Norepinephrine concentrations in hypothalamus: 103.272 % baseline
[4]; -120 min pre dose
  Norepinephrine concentrations in hypothalamus: 91.097 % baseline
[5]; 3 HOUR AVE
  Norepinephrine concentrations in mPFC: 154.642 % baseline
[5]; 20 min post dose
  Norepinephrine concentrations in mPFC: 162.923 % baseline
[5]; 60 min post dose
  Norepinephrine concentrations in mPFC: 197.693 % baseline
[5]; 100 min post dose
  Norepinephrine concentrations in mPFC: 159.929 % baseline
[5]; 140 min post dose
  Norepinephrine concentrations in mPFC: 141.759 % baseline
[5]; 180 min post dose
  Norepinephrine concentrations in mPFC: 147.978 % baseline
[5]; 220 min post dose
  Norepinephrine concentrations in mPFC: 117.569 % baseline
[5]; -40 min pre dose
  Norepinephrine concentrations in mPFC: 98.000 % baseline
[5]; -80 min pre dose
  Norepinephrine concentrations in mPFC: 119.880 % baseline
[5]; -120 min pre dose
  Norepinephrine concentrations in mPFC: 82.120 % baseline
Dopamine receptors
  affinity for dopamine receptors: high affinity
[6]
  affinity for alpha-adrenergic receptors: lower affinity
[7]; 3 HOUR AVE
  Dopamine concentrations in hypothalamus: 125.98 % baseline
[7]; 40 min post dose
  Dopamine concentrations in hypothalamus: 156.507 % baseline
[7]; 80 min post dose
  Dopamine concentrations in hypothalamus: 110.363 % baseline
[7]; 120 min post dose
  Dopamine concentrations in hypothalamus: 183.338 % baseline
[7]; 160 min post dose
  Dopamine concentrations in hypothalamus: 89.032 % baseline
[7]; 200 min post dose
  Dopamine concentrations in hypothalamus: 113.293 % baseline
[7]; 240 min post dose
  Dopamine concentrations in hypothalamus: 95.959 % baseline
[7]; -20 min pre dose
  Dopamine concentrations in hypothalamus: 99.830 % baseline
[7]; -60 min pre dose
  Dopamine concentrations in hypothalamus: 93.473 % baseline
[7]; -100 min pre dose
  Dopamine concentrations in hypothalamus: 106.697 % baseline
[8]; 3 HOUR AVE
  Serotonin concentrations in mPFC: 88.1078 % baseline
[8]; 40 min post dose
  Serotonin concentrations in mPFC: 115.609 % baseline
[8]; 80 min post dose
  Serotonin concentrations in mPFC: 101.724 % baseline
[8]; 120 min post dose
  Serotonin concentrations in mPFC: 88.189 % baseline
[8]; 160 min post dose
  Serotonin concentrations in mPFC: 92.085 % baseline
[8]; 200 min post dose
  Serotonin concentrations in mPFC: 119.171 % baseline
[8]; 240 min post dose
  Serotonin concentrations in mPFC: 83.828 % baseline
[8]; -20 min pre dose
  Serotonin concentrations in mPFC: 98.453 % baseline
[8]; -60 min pre dose
  Serotonin concentrations in mPFC: 100.982 % baseline
[8]; -100 min pre dose
  Serotonin concentrations in mPFC: 100.565 % baseline
